Patent US20130217634A1, “PEPTIDES ABLE TO INTERFERE WITH THE INHIBITING ACTIVITY OF MDM2/MDM4 HETERODIMER TOWARDS P53 AND USE THEREOF FOR CANCER TREATMENT” (UNIVERSITA' DEGLI STUDI DI PERUGIA, priority 2012, published 2013)
*: point of attachment. FITC = O=C1OC2(c3ccc(O)cc3Oc3cc(O)ccc32)c2ccc(NC(=S)*)cc21; Ahx = NCCCCCC(=O)O

Legend:
recombinant GST-MDM2 = molecular target: T1, recombinant GST-MDM2 (Homo sapiens, UniProt Q00987); assay: In vitro ubiquitination assay of p53 performed by recombinant GST-MDM2; format: biochemical
T1 construct: GST (N)
T1 sequence (Q00987 whole entry): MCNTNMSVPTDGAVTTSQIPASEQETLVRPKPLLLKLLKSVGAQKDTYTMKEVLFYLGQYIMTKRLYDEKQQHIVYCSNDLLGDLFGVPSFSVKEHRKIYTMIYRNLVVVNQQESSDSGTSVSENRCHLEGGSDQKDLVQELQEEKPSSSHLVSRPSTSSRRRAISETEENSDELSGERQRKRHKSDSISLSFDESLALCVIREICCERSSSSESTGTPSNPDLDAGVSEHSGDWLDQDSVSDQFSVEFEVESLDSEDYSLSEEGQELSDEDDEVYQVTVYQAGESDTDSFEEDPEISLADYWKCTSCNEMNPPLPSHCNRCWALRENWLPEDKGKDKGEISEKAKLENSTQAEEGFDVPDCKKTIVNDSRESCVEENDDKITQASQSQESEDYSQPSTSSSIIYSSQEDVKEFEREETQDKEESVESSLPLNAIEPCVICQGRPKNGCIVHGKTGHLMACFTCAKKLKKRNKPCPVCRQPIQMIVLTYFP
Text: (§1) Further experiments have been performed to define the role of peptide 3 composition in its molecular and biological activity. […] Supporting these new experimental data about the importance of Isoleucine 489 and Phenylalanine 488, molecular dynamic simulations have shown that these residues engage in specific hydrophobic and aromatic interactions with MDM2 (FIG. 11). In particular, Isoleucine 489 is harbored in a hydrophobic cleft composed of Alanine 434, Isoleucine 435 and Leucine 458 of MDM2 protein. Likewise, Phenylalanine 488 forms aromatic interactions with a Histidine residue (HID-457) of MDM2 protein.

MDM4/MDM2 complex = molecular target: T2, MDM4/MDM2 complex (Homo sapiens, UniProt O15151+Q00987); assay: Immunoprecipitation / western blot of MDM4/MDM2 complex after peptide transfection in HCT116 cells; format: cell-based; settings: HCT116 wild type and p53−/−
T2 construct: immunoprecipitation of MDM4 has been carried out on cell lysates; endogenous in cells; host or cells: HCT116 wt and HCT116 p53-/- colon carcinoma cells
T2 sequence (O15151 whole entry): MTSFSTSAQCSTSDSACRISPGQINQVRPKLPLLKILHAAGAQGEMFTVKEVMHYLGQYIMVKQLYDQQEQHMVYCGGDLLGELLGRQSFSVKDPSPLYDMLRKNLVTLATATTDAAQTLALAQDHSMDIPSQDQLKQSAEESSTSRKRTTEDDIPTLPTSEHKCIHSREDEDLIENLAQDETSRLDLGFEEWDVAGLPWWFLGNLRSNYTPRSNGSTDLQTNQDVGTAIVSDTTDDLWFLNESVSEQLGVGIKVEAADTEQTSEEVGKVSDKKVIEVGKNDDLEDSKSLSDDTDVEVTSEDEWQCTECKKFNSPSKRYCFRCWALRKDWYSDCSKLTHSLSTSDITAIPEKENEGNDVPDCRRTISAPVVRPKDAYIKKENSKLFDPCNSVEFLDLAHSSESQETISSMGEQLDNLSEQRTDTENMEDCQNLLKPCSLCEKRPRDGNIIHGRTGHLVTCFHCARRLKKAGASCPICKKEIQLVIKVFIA
T2 sequence (Q00987 whole entry): as the sequence (Q00987 whole entry) above
Text: Transient transfection of peptides has been carried out in HCT116 wt and p53−/− colon carcinoma cell lines and the immunoprecipitation of MDM4 has been carried out on cell lysates in order to detect the presence of MDM2 within the immunocomplex, by western blot analysis.
Transient transfection of peptides has been carried out in HCT116 wt and p53−/− colon carcinoma cell lines and the immunoprecipitation of MDM4 has been performed on cell lysates in order to detect the presence of MDM2 within the immunocomplex by western blot analysis.
Cells have been lysed using Saito lysis modified reagent (50 mM Tris-HCl, pH 7.4, 0.15 M NaCl, 0.5% Triton-X100, 5 mM EDTA). […]
(§2) It has been investigated whether peptides were able to enter the cell simply by addition thereof at given concentration (5 μM) to cell culture medium and analyzing for the presence thereof by confocal and fluorescence microscopy, each peptide being labeled with green fluorophore (FAM). It has been observed that peptides were detected in cells only after transfection by liposomes. Successively, the ability of peptides to disrupt the binding by MDM4 or MDM2 immunoprecipitation after peptide transfection in HCT116 cancer cell line, and detection of presence of corresponding partner in immunocomplex by western blot assay have been evaluated. […]

p53/MDM4 binding = molecular target: T3, p53/MDM4 binding (Homo sapiens, UniProt O15151); assay: Immunoprecipitation / western blot of p53 binding to MDM4 after peptide transfection in HCT116 cells; format: cell-based
T3 construct: MDM4 or MDM2 immunoprecipitation after peptide transfection in HCT116 cancer cell line; endogenous in cells; host or cells: HCT116 wt (p53+/+) colon carcinoma cells
T3 sequence (O15151 whole entry): as the sequence (O15151 whole entry) above
T3 sequence (P04637 whole entry partner): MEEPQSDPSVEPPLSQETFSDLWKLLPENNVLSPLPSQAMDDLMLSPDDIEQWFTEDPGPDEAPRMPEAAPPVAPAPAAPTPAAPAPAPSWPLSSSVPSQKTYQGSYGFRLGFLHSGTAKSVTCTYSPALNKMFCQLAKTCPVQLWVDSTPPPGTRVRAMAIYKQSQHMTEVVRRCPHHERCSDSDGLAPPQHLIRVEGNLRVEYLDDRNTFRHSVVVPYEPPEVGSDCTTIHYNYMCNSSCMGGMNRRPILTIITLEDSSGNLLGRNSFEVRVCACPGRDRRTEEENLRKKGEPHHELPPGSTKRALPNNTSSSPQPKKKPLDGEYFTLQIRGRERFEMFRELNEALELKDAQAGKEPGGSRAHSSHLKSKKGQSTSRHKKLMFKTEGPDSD
Procedure: Cells have been lysed using Saito lysis modified reagent (50 mM Tris-HCl, pH 7.4, 0.15 M NaCl, 0.5% Triton-X100, 5 mM EDTA). For p53 immunoprecipitation and BCL2 and MDM4 analysis EBC modified solution has been used (50 mM Tris-HCl, pH 7.4, 0.12 M NaCl, 0.4% NP-40, 1 mM EDTA, 1 Mm β-mercaptoethanol).
400 μg of total protein extract has been incubated with protein G (Invitrogen) for 2 hours under stirring at 4° C. in order not specific binding of proteins with said substrate can occur. Afterwards the cellular extract has been centrifuged, not specific complexes removed with precipitate and supernatant has been incubated for 16 hours with specific antibody. Successively, protein G has been added and incubated for 2 hour at 4° C. […]
as §2

HCT116 p53−/− cells = assay: Cell death by cytofluorimetric analysis (Propidium Iodide) of cells transfected with FITC tagged peptides; format: cell-based; settings: HCT116 p53−/− compared with wt
Procedure: (§3) Cytofluorimetric analysis was carried out on HCT116 wt and p53−/− cells transfected with FITC tagged peptides and stained with Propidium Iodide (PI). Percentage of dead cells was evaluated specifically among the transfected cells (green population).
(§4) Cytofluorimetric analysis was performed on HCT116 wt and p53−/− cells transfected with FITC tagged peptides and stained with Propidium Iodide (PI). Percentage of dead cells was evaluated specifically among the transfected cells (green population).
(§5) It has been investigated whether peptides were able to enter the cell simply by addition thereof at given concentration (5 μM) to cell culture medium and analyzing for the presence thereof by confocal and fluorescence microscopy, each peptide being labeled with green fluorophore (FAM). It has been observed that peptides were detected in cells only after transfection by liposomes. Successively, the ability of peptides to disrupt the binding by MDM4 or MDM2 immunoprecipitation after peptide transfection in HCT116 cancer cell line, and detection of presence of corresponding partner in immunocomplex by western blot assay have been evaluated. Two HCT116 wild type and HCT116 p53−/− syngeneic cell lines have been used in order to understand also observed effect dependence on the presence of p53.

HCT116 wt cells = assay: as above; format: cell-based; settings: for induction of apoptotic response / cellular apoptosis: HCT116 cells transfected with peptide
Procedure: as §3, §4, §5

[1] = tested on: HCT116 wt and p53−/− cells; assay: TUNEL assay of apoptosis in cells transfected with FITC tagged peptides; format: cell-based; settings: among transfected (green) cells
Procedure: In order to specifically detect apoptotic cells, TUNEL assay was carried out in HCT116 wt and p53−/− cells transfected with FITC tagged peptides. Percentage of apoptotic cells was evaluated specifically among the transfected cells (green population).
as §1

Row | inhibition of ubiquitination of p53 (recombinant GST-MDM2) | Substance | ability to dissociate MDM4/MDM2 complex (MDM4/MDM2 complex) | effect on binding of p53 to MDM4 (p53/MDM4 binding) | induced death in p53 lacking versus p53 harboring cells (HCT116 p53−/− cells) | induction of apoptotic response / cellular apoptosis (HCT116 wt cells) | induction of apoptosis (TUNEL) [1] | cell death response in comparison to the control Scramble peptide (HCT116 wt cells; HCT116 p53+/+ cells)
1 | ineffective | AIKIFVKVLEIQ (peptide composed with the same aminoacids of SEQ ID NO3 but arranged in different order) [Peptide SC3B] | – | – | – | – | – | –
2 | completely ineffective | KEIQLVIKVAEA (MDM4 sequence of the interaction domain between MDM4 and MDM2 from aa 479 to aa 490 of MDM4 in which FI in positions 10 and 11 of said sequence has been substituted with AE) [Peptide 3D, reference compound] | – | – | – | – | completely ineffective | –
3 | ineffective | VQEAFKLIKIVI (peptide composed with the same aminoacids of SEQ ID NO3 but arranged in different order) [Peptide SC3A] | – | – | – | – | – | –
4 | – | {FITC-Ahx}-ESSLPLNAIEPS-NH2 [Peptide 1] | suitable to dissociate said two proteins | able to preserve the binding of p53 to MDM4 | – | induce a significant apoptotic response | – | significantly higher in comparison to the control Scramble peptide

Row | Substance | inhibition of ubiquitination of p53 (recombinant GST-MDM2) | ability to dissociate MDM4/MDM2 complex (MDM4/MDM2 complex) | effect on binding of p53 to MDM4 (p53/MDM4 binding) | induced death in p53 lacking versus p53 harboring cells (HCT116 p53−/− cells) | induction of apoptotic response / cellular apoptosis (HCT116 wt cells) | induction of apoptosis (TUNEL) [1] | cell death response in comparison to the control Scramble peptide (HCT116 wt cells; HCT116 p53+/+ cells)
5 | FITC-Ahx-KEIQLVIKVFIA-CONH2 (HELM PEPTIDE1{[O=C1OC2(c3ccc(O)cc3Oc3cc(O)ccc32)c2ccc(NC(=S)[*:2])cc21].[O=C(CCCCCN[*:1])[*:2]].K.E.I.Q.L.V.I.K.V.F.I.A.[am]}$$$$V2.0; SMILES CC[C@H](C)[C@H](NC(=O)[C@H](Cc1ccccc1)NC(=O)[C@@H](NC(=O)[C@H](CCCCN)NC(=O)[C@@H](NC(=O)[C@@H](NC(=O)[C@H](CC(C)C)NC(=O)[C@H](CCC(N)=O)NC(=O)[C@@H](NC(=O)[C@H](CCC(=O)O)NC(=O)[C@H](CCCCN)NC(=O)CCCCCNC(=S)Nc1ccc2c(c1)C(=O)OC21c2ccc(O)cc2Oc2cc(O)ccc21)[C@@H](C)CC)C(C)C)[C@@H](C)CC)C(C)C)C(=O)N[C@@H](C)C(N)=O) [Peptide 3, FITC-Ahx tagged, C-terminal amide] | inhibit the ubiquitinatin activity of MDM2 towards p53 | highly effective in dissociating said two molecules | does not dissociate p53 from MDM4 | meaningfully lower in p53 lacking than harboring cells | highly effective in inducing cellular apoptosis | induce apoptosis | –
